Patent US20190353647A1, “NOVEL REAL-TIME MULTIPLEXED, MULTI-COLOR BIOLUMINESCENCE RESONANCE ENERGY TRANSFER ASSAY, APPARATUS, AND USES THEREOF” (Universite de Bordeaux, priority 2016, published 2019)

Target: TRPV4 (Homo sapiens, UniProt Q9HBA0)
Assay: Intermolecular BRET assay, TRPV4-Luc/YFP-CaM in HEK293T cells
Assay type: cell-based
Parameters: expressed in transfected cells; host or cells: HEK293T
Conditions: for TRPV4-Luc/YFP-CaM basal BRET signal on challenge: HEK293T, dose-response, FIG. 1
From the text: In order to generate the BRET constructs, super Yellow Fluorescent Protein 2 and Renilla Luciferase II were used to improve the brightness of the assay. They were referred as YFP and Luc for short in the rest of the manuscript. The cDNA of Luc and YFP were first cloned together using a three-piece ligation in the BamHI/XhoI site of pcDNA3.1(+) (Invitrogen, Carlsbad, Calif., USA), yielding two expression vectors pcDNA3.1 YFP-Luc where YFP was cloned in-fusion at the N-terminal of Luc, and pcDNA3.1 Luc-YFP where Luc was cloned in-fusion at the N-terminal of YFP. Both YFP and Luc were amplified by PCR from the pcDNA3-YFP-EPAC-Luc vector. Luc was cloned either at the N-terminal of YFP as a HindIII-EcoRI fragment (primers used: “Luc_HindIII_ATGN-term sense” and “Luc_no Stop_EcoRI_N-term antisense”) or at the COOH-terminal of YFP as an EcoRI-XhoI fragment (primer used: “Luc_EcoRI_ATG_C-term sense” and “Luc_XhoI_Stop_C-term antisense”). In parallel, YFP was cloned either at the N-terminal of Luc as a HindIII-EcoRI fragment (primers used: “YFP_HindIII_ATG_N-term sense” and “YFP_no Stop_EcoRI_N-term antisense”) or at the COOH-terminal of Luc as a EcoRI-XhoI fragment (primer used: “YFP_EcoRI_ATG_C-term sense” and “YFP_XhoI_Stop_C-term antisense”). The sequence joining Luc and YFP sequence encoded […] (SEQ ID NO: 18) as a linker, and contained an AgeI restriction site. The YFP-hTRPV1-Luc expression vector was obtained by subcloning the human TRPV1 cDNA from the pDONR201-hTRPV1 vector (Harvard Medical School PlasmID Repository, clone HsCD00081472) as an EcoRI PCR fragment in the EcoRI site of the vector pcDNA3.1 YFP-Luc (primer used: “hTRPV1_EcoRI_Fus_Sense” and “hTRPV1_EcoRI_Fus_antisense”). The hTRPV1-Luc expression vector was obtained by subcloning the cDNA of hTRPV1 as a HindIII-EcoRI fragment in place of the YFP in the HindIII-EcoRI site of the pcDNA3.1 YFP-Luc vector (primer used: “hTRPV1_HindIII_ATG_Sense” and “hTRPV1_EcoRI_Fus_antisense”). […]
HEK293T cells were maintained in Dulbecco's modified Eagle's medium-high Glucose (DMEM) (D6429, Sigma) supplemented with 10% fetal bovine serum, 100 units mL-1 penicillin and streptomycin. […] After overnight incubation, transfected cells were then detached, resuspended in DMEM w/o red phenol (Ref 21063-029, ThermoFisher scientific, Waltham, Mass., USA) and replated at a density of 10^5 cells per well in 96-well white plates with clear bottoms (Greiner Bio one, Courtaboeuf, France) pre-treated with D-polylysine (Sigma) for reading with the Tristar2 luminometer (Berthold Technologies, Bad Wildbad, Germany) or onto 12 mm diameter glass coverslips (Knittel Glass, Braunschweig, Germany) treated with poly-L-lysine for the reading with the SpectraPro 2300i spectrometer (Acton Optics, Acton, Mass., USA). […]

TRPV4, sequence (Q9HBA0 whole entry): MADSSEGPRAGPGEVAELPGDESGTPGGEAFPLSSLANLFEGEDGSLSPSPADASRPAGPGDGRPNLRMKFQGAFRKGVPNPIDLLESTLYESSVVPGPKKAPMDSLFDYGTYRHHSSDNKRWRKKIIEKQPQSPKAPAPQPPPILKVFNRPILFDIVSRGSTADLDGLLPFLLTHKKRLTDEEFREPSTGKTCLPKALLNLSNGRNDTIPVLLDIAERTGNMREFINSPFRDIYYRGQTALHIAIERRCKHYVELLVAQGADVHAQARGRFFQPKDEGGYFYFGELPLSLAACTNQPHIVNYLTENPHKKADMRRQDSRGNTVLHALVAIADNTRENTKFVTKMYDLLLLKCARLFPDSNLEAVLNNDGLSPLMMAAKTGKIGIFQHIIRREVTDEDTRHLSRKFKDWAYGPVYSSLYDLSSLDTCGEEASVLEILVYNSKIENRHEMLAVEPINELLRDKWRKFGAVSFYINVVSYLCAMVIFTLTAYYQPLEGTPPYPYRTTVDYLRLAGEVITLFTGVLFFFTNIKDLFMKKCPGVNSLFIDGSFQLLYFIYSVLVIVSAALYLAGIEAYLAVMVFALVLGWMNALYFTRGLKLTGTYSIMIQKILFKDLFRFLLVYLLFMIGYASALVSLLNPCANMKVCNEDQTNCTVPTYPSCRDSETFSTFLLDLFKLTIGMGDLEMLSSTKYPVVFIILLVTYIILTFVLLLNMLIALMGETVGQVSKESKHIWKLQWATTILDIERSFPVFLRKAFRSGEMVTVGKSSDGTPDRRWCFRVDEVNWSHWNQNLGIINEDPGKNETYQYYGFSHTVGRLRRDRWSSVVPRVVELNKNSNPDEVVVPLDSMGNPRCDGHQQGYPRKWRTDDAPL

Compound	TRPV4-Luc/YFP-CaM basal BRET signal on challenge	EC50 [nM]
COc1cc(CNC(=O)CCCC/C=C/C(C)C)ccc1O [CAPS, Capsaicin]	did not produce any increase	
CCN(CC)CCOC(=O)C(c1ccccc1)C1CCCCC1 (stereo not shown) [Drofenine]	did not produce any increase	
CC(C)C[C@H](NC(=O)c1cc2ccccc2s1)C(=O)N1CCN(C(=O)[C@H](CO)NS(=O)(=O)c2ccc(Cl)cc2Cl)CC1 [GSK1016790A]	dose-dependent increase	1.93
